According to patent publication US20230310479A1, “LOW DOSE ADJUVANT EPIGENETIC CANCER THERAPY” (THE JOHNS HOPKINS UNIVERSITY, priority 2019, published 2023):
Where two headings read alike, the source gives them in different places.

Legend:
[1] = cited from earlier work
[2] = system: CCR2; experiment: CCR2 expression in monocytic MDSCs (cDNA array, quantitative PCR, FACS); assay type: in vivo, mouse; conditions: three days of treatment, 30 or 75 mg/kg/d orally, LLC mice
Text: FIGS. 2A-2G. […] FACS and graphs showing percentages and absolute numbers of the donor-derived-cell subset (CD45.1^+ cells) in both lungs of the recipient LLC mice (n=3 mice per group). FIG. 2C: Cell-sorting schema for collecting monocytic MDSCs on day 3 after resection (left). Volcano plots showing differences in RNA expression of monocytic MDSCs from the bone marrow (BM) or lung between low-dose-AET-and vehicle-treated LLC mice (right) (n=3 biological replicates). FIG. 2D: Agilent cDNA array expression of chemokines and chemokine receptors in monocytic MDSCs from bone marrow or lungs of low-dose-AET-and vehicle-treated LLC mice (n=3 biological replicates). False-discovery-rate (FDR)-adjusted P values of CCR2 are 0.005 (bone marrow) and 0.016 (lung). Cxcr7 is also known as Ackr3. […] In the FACS plot, red represents low-dose AET and blue represents mock treatment. […]
FIGS. 10A-10H. […] CD45.1^+ cells (transferred polymorphonuclear MDSCs) were identified in the lungs of the recipient mice and analyzed by flow cytometry (right, n=3 mice per group). […] CD45.1^+ cells (transferred polymorphonuclear MDSCs) were identified in the lungs of the recipient CD45.2 mice and analyzed by flow cytometry at 18 h after transfer (right, n=3 mice per group). […] Gene-set enrichment P values, NES values and FDR values reported are calculated with 1,000 permutations in the GSEA software. […]

Structure (SMILES) | solubility ([1]; in acetone, ethanol and methyl ketone) | solubility ([1]; in dimethylsulfoxide (DMSO)) | solubility ([1]; in ethanol/water (50/50), propylene glycol and polyethylene glycol) | solubility ([1]; in water, water-saturated octanol, 5% dextrose in water, N-methyl-2-pyrrolidone, normal saline and 5% Tween 80 in water) | expression of CCR2 in monocytic MDSCs from bone marrow in vivo [2]
Nc1ncn([C@@H]2O[C@H](CO)[C@@H](O)[C@H]2O)c(=O)n1 [5-azacitidine, 4-amino-1-β-D-ribofuranozyl-s-triazin-2(1H)-one] | insoluble | soluble | slightly soluble | sparingly soluble | 
Cc1ccc2nc(NCCN)c3ncc(C)n3c2c1 [BMS-345541] |  |  |  |  | decreased expression
